This is an account of results in publication PMC6222450, “Computer-Aided Studies for Novel Arylhydantoin 1,3,5-Triazine Derivatives as 5-HT6 Serotonin Receptor Ligands with Antidepressive-Like, Anxiolytic and Antiobesity Action In Vivo” (Molecules : A Journal of Synthetic Chemistry and Natural …, 2018).

Format in all cases: in vivo, rat
The subject of experiment [1] is male Wistar rats. The experiment is described as follows: Forced swim test (FST). The note with it: i.p. 60 min before test, 5 min observation, p < 0.05. The method, then:
(§1) The experiments were performed on male Wistar rats (200–220 g—behavioural test or 170–190 g—metabolic assay) obtained from an accredited animal facility at the Jagiellonian University Medical College, Poland. The animals were housed in a group of four in a controlled environment (ambient temperature 21 ± 2 °C; relative humidity 50–60%; 12 h light/dark cycles (lights on at 8:00). Standard laboratory food (LSM-B) and filtered water were freely available (behavioral tests). Animals were assigned randomly to treatment groups. All the experiments were performed by two observers unaware of the treatment applied between 9:00 and 14:00 on separate groups of animals. All animals were used only once.
(§2) Compounds were suspended in 1% Tween 80 immediately before administration in a volume of 2 mL/kg—behavioral tests or 1 mL/kg—body weight measures. Compounds were administered intraperitoneally (i.p.) 60 min before testing—behavioral tests. Control animals received vehicle (1% Tween 80) according to the same schedule.
The experiment was carried out according to the method of Porsolt et al.. […] On the following day (24 h later), the rats were replaced in the cylinder and the total duration of immobility was recorded during the whole 5-min test period. […]

For experiment [2], the system named is male Wistar rats. As to the kind of experiment: Vogel conflict drinking test. The following applies: 3 mg/kg i.p. 60 min before test, 5 min session, p < 0.05. As for the experimental part: as §1, §2
The testing procedure was based on a method of Vogel et al. and used the Anxiety Monitoring System “Vogel test” produced by TSE Systems (Germany). […] The number of licks and the number of shocks received during a 5 min experimental session were recorded automatically.

Experiment [3] in a line: Body weight of non-obese rats fed palatable diet (model of excessive eating). The text has this:
In order to determine the anorectic activity of 6 or 26, the model of excessive eating was used. Male Wistar rats (170–190 g) were housed in a pair in plastic cages in constant temperature facilities exposed to a light-dark cycle. Water and food were available ad libitum. Two groups of 6 rats were fed with diets consisting of milk chocolate with nuts, cheese, salted peanuts, and 7% condensed milk and also had access to standard feed (Labofeed B, Morawski Manufacturer Feed, Kcynia, Poland) and water ad libitum for 3 weeks. Palatable control group (palatable diet + vehicle) received vehicle (1% Tween 80, intraperitoneally), while palatable test group (palatable diet + 6 or palatable + 26) was injected (intraperitoneally) with 6 or 26 at the dose of 5 mg/kg b.w. dissolved in 1% Tween 80 (1 mL/kg). Body weights were measured daily, immediately prior to administration of drugs.
The palatable diet contained: 100 g peanuts—614 kcal; 100 mL condensed milk—131 kcal; 100 g milk chocolate—529 kcal; 100g cheese (Greek type)—270 kcal. The standard diet contained 100 g feed—280 kcal.

As for `CN1CCN(c2nc(N)nc(CN3C(=O)NC(C)(c4ccc5ccccc5c4)C3=O)n2)CC1` (centres unmarked) [Compound 26, 3-((4-Amino-6-(4-methylpiperazin-1-yl)-1,3,5-triazin-2-yl)methyl)-5-methyl-5-(naphthalen-2-yl)imidazolidine-2,4-dione], the “decrease of immobility time vs. vehicle treated group” value in the experiment on male Wistar rats [1] is “about 20%”. The “increase of number of accepted shocks” value in the experiment on male Wistar rats [2] worked out at 76%. Besides, the “day of experiment from which groups differed significantly” value in experiment [3] (rats fed palatable feed, 5 mg/kg b.w. i.p. daily) was 12 days. In experiment [3] (rats fed palatable feed, 5 mg/kg b.w. i.p., 21 days), the “weight gain vs control group” value was “significantly less weight gain”. Further, the “body weight vs control animals fed standard feed” value in experiment [3] (treated rats with access to preferential feed, 5 mg/kg b.w. i.p.) is on record as “did not differ significantly”.
